# According to paper PMC8550792, “Evolution of kinase polypharmacology across HSP90 drug discovery” (Cell Chemical Biology, 2021):
# Key:
# Test in all cases: biochemical
# Format in all cases: biochemical
# [1] = biological target: T1, 382 unique human kinases (Homo sapiens, UniProt P42679); settings: kinase CTK/MATK, compound 10 uM; for remaining activity at 10 µM: read-out: % Enzyme Activity (relative to DMSO controls)
# T1 construct: purchased Reaction Biology (HotSpot contract assay)
# T1 sequence (P42679 1-507): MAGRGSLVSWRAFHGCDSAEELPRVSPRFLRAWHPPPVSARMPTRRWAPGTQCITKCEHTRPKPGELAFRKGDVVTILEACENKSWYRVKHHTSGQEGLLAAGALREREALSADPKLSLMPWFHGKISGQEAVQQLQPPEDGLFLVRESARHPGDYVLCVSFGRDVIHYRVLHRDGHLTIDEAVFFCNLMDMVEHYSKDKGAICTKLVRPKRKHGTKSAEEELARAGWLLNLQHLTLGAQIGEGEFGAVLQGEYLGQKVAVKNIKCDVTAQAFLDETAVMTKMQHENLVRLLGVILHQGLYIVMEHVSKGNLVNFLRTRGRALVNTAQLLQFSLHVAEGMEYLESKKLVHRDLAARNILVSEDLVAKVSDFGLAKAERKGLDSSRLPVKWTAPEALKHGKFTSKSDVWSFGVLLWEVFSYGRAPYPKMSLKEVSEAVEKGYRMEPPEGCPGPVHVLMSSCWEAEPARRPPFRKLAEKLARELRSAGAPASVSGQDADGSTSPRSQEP
# [2] = biological target: T2, 382 unique human kinases (Homo sapiens, UniProt P43403); settings: ZAP70, compound at 10 uM, duplicate values; for remaining activity at 10 µM: read-out: % Enzyme Activity (relative to DMSO controls)
# T2 construct: purchased Reaction Biology (HotSpot contract assay)
# T2 sequence (P43403 1-619): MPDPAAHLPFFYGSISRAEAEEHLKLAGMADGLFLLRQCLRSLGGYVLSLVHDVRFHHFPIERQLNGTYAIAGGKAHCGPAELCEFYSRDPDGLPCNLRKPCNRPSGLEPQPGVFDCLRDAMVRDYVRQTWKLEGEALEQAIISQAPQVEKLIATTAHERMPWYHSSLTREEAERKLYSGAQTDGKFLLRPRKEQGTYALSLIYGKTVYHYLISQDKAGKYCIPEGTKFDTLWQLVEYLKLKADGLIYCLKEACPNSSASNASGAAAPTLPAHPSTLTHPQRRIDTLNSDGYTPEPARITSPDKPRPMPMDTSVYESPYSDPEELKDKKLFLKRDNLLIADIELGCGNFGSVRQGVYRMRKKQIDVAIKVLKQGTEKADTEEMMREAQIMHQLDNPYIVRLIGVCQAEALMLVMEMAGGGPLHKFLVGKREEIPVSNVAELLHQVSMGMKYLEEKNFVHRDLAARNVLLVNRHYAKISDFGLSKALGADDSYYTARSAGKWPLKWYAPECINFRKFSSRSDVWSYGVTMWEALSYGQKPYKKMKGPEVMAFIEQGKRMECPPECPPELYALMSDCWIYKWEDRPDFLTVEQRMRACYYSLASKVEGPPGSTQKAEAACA
# [3] = biological target: T3, 382 unique human kinases (Homo sapiens, UniProt P49760); settings: CLK2, 10 uM; for remaining activity at 10 µM: read-out: % Enzyme Activity (relative to DMSO controls)
# T3 construct: purchased Reaction Biology (HotSpot contract assay)
# [4] = biological target: T4, 382 unique human kinases (Homo sapiens, UniProt Q02763, Y897C); settings: kinase TIE2 (Y897C), compound 10 uM; for remaining activity at 10 µM: read-out: % Enzyme Activity (relative to DMSO controls)
# T4 construct: purchased Reaction Biology (HotSpot contract assay)
# [5] = biological target: T5, 382 unique human kinases (Homo sapiens, UniProt Q15835); settings: GRK1, 10 uM; for remaining activity at 10 µM: read-out: % Enzyme Activity (relative to DMSO controls)
# T5 construct: purchased Reaction Biology (HotSpot contract assay)
# T5 sequence (Q15835 1-563): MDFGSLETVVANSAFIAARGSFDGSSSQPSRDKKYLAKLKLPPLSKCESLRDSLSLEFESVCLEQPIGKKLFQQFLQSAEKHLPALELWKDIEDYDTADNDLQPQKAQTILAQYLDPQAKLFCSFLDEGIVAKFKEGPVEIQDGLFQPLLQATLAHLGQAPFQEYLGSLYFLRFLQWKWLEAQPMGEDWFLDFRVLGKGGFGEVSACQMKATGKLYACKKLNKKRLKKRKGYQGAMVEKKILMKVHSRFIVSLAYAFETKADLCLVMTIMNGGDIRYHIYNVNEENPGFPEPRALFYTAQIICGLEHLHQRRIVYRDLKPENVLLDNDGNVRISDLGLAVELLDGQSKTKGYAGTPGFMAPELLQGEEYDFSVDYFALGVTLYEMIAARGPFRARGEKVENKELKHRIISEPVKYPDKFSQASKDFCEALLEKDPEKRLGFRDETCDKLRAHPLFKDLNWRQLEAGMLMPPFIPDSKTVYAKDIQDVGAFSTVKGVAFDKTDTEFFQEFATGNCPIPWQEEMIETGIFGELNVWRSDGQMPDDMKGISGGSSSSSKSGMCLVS
# [6] = biological target: T6, 382 unique human kinases (Homo sapiens, UniProt P00519, G250E); settings: ABL1 (G250E), [ATP] 10 µM, compound 10 uM; for remaining activity at 10 µM: read-out: % Enzyme Activity (relative to DMSO controls)
# T6 construct: purchased Reaction Biology (HotSpot contract assay)
# [7] = biological target: T7, 382 unique human kinases (Homo sapiens, UniProt Q96BR1); settings: SGK3/SGKL, 10 uM; for remaining activity at 10 µM: read-out: % Enzyme Activity (relative to DMSO controls)
# T7 construct: purchased Reaction Biology (HotSpot contract assay)
# T7 sequence (Q96BR1 1-496): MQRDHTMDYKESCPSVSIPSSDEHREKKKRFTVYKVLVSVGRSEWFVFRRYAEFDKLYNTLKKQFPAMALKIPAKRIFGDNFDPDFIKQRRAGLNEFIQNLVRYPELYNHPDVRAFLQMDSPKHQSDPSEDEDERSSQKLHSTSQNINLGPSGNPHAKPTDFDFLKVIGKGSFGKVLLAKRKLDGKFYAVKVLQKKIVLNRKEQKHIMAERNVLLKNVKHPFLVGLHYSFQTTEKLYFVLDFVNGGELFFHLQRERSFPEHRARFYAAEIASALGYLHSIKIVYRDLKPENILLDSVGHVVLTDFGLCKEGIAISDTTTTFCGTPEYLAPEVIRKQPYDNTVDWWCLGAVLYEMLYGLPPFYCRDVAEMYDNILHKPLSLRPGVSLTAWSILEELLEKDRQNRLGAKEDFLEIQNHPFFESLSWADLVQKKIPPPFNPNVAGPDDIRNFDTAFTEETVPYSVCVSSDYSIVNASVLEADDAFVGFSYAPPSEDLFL
# [8] = biological target: T8, 382 unique human kinases (Homo sapiens, UniProt Q9H4B4); settings: PLK3, [ATP] 100 µM, compound 10 uM; for remaining activity at 10 µM: read-out: % Enzyme Activity (relative to DMSO controls)
# T8 construct: purchased Reaction Biology (HotSpot contract assay)
# T8 sequence (Q9H4B4 whole entry): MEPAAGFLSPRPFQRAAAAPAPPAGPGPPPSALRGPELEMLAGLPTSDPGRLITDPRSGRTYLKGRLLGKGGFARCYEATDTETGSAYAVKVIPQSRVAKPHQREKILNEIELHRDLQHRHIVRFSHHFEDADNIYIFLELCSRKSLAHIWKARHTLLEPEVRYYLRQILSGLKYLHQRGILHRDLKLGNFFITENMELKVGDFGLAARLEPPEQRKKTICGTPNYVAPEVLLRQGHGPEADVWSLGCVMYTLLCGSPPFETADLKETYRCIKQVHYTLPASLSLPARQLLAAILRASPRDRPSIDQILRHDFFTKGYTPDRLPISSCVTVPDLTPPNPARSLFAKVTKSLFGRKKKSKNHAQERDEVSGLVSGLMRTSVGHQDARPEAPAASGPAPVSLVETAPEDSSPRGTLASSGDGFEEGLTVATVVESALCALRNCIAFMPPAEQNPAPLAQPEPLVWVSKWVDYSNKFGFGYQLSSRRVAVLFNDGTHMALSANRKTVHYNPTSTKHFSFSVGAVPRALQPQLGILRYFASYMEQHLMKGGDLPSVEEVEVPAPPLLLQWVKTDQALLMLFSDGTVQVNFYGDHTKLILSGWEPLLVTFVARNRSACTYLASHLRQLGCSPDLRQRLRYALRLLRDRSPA
# T3 sequence (P49760 whole entry): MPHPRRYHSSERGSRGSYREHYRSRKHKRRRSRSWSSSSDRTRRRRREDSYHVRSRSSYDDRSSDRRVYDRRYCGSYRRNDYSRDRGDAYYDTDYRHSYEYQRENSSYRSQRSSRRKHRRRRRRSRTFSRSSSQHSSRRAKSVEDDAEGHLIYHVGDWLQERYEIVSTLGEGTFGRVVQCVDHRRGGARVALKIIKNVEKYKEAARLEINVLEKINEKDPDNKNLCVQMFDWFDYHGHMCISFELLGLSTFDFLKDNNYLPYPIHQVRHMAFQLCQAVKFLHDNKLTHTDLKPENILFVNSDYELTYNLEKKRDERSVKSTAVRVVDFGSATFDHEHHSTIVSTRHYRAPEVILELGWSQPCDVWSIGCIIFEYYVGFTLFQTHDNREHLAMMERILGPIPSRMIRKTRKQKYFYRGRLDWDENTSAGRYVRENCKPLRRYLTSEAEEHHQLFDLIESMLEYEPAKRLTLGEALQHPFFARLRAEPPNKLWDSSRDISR
# T4 sequence (Q02763 23-1124 Y897C): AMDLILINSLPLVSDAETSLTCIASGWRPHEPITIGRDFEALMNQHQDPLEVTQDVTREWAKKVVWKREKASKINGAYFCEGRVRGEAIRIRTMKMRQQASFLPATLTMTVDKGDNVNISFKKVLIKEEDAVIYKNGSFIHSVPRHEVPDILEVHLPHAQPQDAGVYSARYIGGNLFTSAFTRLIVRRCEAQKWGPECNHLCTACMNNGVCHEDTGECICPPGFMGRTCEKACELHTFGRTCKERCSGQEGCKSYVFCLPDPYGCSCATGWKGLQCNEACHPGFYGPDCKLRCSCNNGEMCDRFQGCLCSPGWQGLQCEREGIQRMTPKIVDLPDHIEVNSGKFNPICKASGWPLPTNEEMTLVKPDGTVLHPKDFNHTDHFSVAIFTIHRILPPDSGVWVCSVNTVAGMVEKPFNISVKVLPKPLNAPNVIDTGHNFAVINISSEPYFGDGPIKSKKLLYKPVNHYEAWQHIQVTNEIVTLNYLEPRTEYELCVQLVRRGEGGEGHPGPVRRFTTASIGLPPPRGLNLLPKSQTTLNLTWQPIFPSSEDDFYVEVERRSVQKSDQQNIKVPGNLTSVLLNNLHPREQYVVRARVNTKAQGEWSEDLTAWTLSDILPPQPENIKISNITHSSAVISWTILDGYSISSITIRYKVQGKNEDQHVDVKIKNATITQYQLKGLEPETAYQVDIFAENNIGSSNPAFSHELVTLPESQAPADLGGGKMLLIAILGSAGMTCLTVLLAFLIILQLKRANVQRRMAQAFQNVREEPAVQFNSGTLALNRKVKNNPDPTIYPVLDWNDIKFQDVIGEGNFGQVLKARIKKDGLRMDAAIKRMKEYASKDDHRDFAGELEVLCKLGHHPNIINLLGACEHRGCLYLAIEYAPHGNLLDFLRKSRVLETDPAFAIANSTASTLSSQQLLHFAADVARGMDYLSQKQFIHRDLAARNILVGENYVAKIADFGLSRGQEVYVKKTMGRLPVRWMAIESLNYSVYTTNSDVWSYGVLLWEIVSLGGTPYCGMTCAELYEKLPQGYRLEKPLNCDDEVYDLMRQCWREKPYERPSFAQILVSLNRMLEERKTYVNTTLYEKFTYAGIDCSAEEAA
Compound,remaining activity at 10 µM [1] [%],remaining activity at 10 µM [2] [%],remaining activity at 10 µM [3] [%],remaining activity at 10 µM [4] [%],remaining activity at 10 µM [5] [%],remaining activity at 10 µM [6] [%],remaining activity at 10 µM [7] [%],remaining activity at 10 µM [8] [%],% Enzyme Activity (relative to DMSO controls) [1] [%],% Enzyme Activity (relative to DMSO controls) [2] [%],% Enzyme Activity (relative to DMSO controls) [3] [%],% Enzyme Activity (relative to DMSO controls) [4] [%],% Enzyme Activity (relative to DMSO controls) [5] [%],% Enzyme Activity (relative to DMSO controls) [6] [%],% Enzyme Activity (relative to DMSO controls) [7] [%],% Enzyme Activity (relative to DMSO controls) [8] [%]
CC(C)c1cc(-c2n[nH]c(=O)n2-c2ccc3c(ccn3C)c2)c(O)cc1O [Ganetespib (STA9090)],80,108,67.1,88,76,–,–,–,–,–,–,–,–,–,–,–
CC(C)c1cc(-c2n[nH]c(=O)n2-c2ccc3c(ccn3C)c2)c(O)cc1O [Ganetespib],–,–,–,–,–,5.88,101,39.6,–,–,–,–,–,–,–,–
CCNC(=O)c1noc(-c2cc(C(C)C)c(O)cc2O)c1-c1ccc(CN2CCOCC2)cc1 [Luminespib (AUY-922)],83.5,105,80.2,100,85.9,–,–,–,80.99,104.43,80.06,99.30,85.44,–,–,–
CCNC(=O)c1noc(-c2cc(C(C)C)c(O)cc2O)c1-c1ccc(CN2CCOCC2)cc1 [Luminespib],–,–,–,–,–,5.9,106,99.4,–,–,–,–,–,5.81,105.88,99.40
